Consider ten compounds from patent US20100144683A1, “METHODS FOR GENERATING MAMMALIAN MODELS OF ATOPIC DISEASES, AND SCREENING FOR THEIR TREATMENT” (ASSOCIATION POUR LA RECHERCHE A L'IGBMC (ARI), priority 2006, published 2010).

Where only a bound is given, the exact number is not on record here.

The subject of data set [1] is TSLP. Put plainly: TSLP RNA level (Q-PCR) in skin and organs after topical application of NR agonists. Type of data set: in vivo, mouse. The settings on record: for increase in TSLP transcripts at D5 / effect on TSLP expression (Q-PCR): 4 nmoles in ethanol topically on whole ears of CD1 WT mice, D1 to D4, Q-PCR on day 5. As for the experimental part:
Four nmoles of ligands dissolved in ethanol were topically applied to whole ears of 6-8-week-old female CD1 wildtype (WT) mice for 4 consecutive days (D1 to D4), and TSLP RNA levels were determined on day 5.
1α,25-(OH)2D3, or MC903 and ethanol (vehicle) were applied to WT mouse right and left ears, respectively. Two shaved areas (1 cm^2 each) of dorsal skin were also treated with MC903 or ethanol.

For data set [2], the system named is ears of CD1 wildtype (WT) mice. Put plainly: AD-like phenotype upon long-term ear topical treatment (appearance, histology, IHC). The format is in vivo, mouse. An excerpt: White arrows point to the dermal/epidermal junction. FIGS. 2a and b show the ear appearance at day 17 after ethanol and MC903 treatment, respectively. FIGS. 2c and d show hematoxylin and eosin-stained (HE) ear sections of ethanol- and MC903-treated mice at day 17, respectively. Eosinophil-selective cytoplasmic red staining is pointed by arrows in the inset of (d). FIG. 2 u show hematoxylin and eosin-stained (HE) ear sections of ethanol- and 1α,25(OH)2D3 treated mice every second day, at a dose of 0.25 nmole, at day 18 (D18). FIGS. 2 e to n show the result of IHC performed on ear sections from ethanol- or MC903-treated mice at D17, with antibodies against GR1 (e and f), CD3 (g and h), CD4 (i and j), CD8 (k and l) and CD11c (m and n). Yellow color corresponds to staining of antibodies, whereas blue corresponds to DAPI staining of nuclei. FIGS. 2 o and p show the Toluidin blue (TB)-staining of ear sections. Red arrows point to one of the mast cells with intense blue color in the dermis.

In data set [3] the test system is TSLP. Put plainly: TSLP RNA level (Q-PCR) in skin and organs after topical application of NR agonists. Type of data set: in vivo, mouse. The settings on record: for TSLP RNA levels in ears at D18: 0.25 nmole per ear every second day, WT mice; for dose dependence of TSLP transcripts: increasing doses (MC903: 0.4, 1 or 4 nmoles per ear).
Data set [4] is described as follows: Calcemia and overall health upon topical application. Type of data set: in vivo. The settings on record: 4 nmoles topically on ears, 4 consecutive days. As for the experimental part:
1α,25-(OH)2D3, or MC903 and ethanol (vehicle) were applied to WT mouse right and left ears, respectively. Two shaved areas (1 cm^2 each) of dorsal skin were also treated with MC903 or ethanol. […]

In data set [5] the test system is MC903-induced TSLP expression. Put plainly: RAR antagonist on MC903-induced TSLP RNA in ears. Type of data set: in vivo, mouse. The following applies: BMS493 2.5 nmoles with MC903 1.25 nmoles, daily on ears of CD1 WT mice, D3. As to the method:
The RAR antagonist BMS493 (2.5 nmoles) with ethanol and with or without MC903 (1.25 nmoles) was daily topically-applied to ears of 6-8-week-old female CD1 (WT) mice. TSLP RNA levels in the ears were measured at D3.

Data set [6] concerns ears of CD1 wildtype (WT) mice. Put plainly: AD-like phenotype upon long-term ear topical treatment (appearance, histology, IHC). The format is in vivo, mouse. The following applies: topical treatment with the RAR agonist alone.

Turning to `C=C1/C(=C\C=C2/CCC[C@]3(C)[C@@H]([C@H](C)CCCC(C)(C)O)CC[C@@H]23)C[C@@H](O)C[C@@H]1O` [1α,25-(OH)2D3, 1,25-Dihydroxyvitamin D3], the “increase in TSLP transcripts at D5” value with TSLP [1] was above 300 fold. In addition, the ear appearance result in data set [2] (MC903 4 nmoles daily or 1α,25(OH)2D3 0.25 nmole every second day, from D5, D17) was “reddening and swelling, that worsened with time”. Besides, the “ear histology (hematoxylin/eosin)” value in data set [2] (MC903 4 nmoles daily, D17, 1α,25-(OH)2D3 0.25 nmole every other day, D18) is “inflammatory infiltrate comprising CD4+ T lymphocytes, dendritic cells, eosinophils and mast cells”. Besides, the results for the “TSLP RNA levels in ears at D18” value in the data set on TSLP [3] and with TSLP [3] (listed as 1α,25(OH)2D3) were “significantly induced” and “increased”, respectively. Also, in data set [4], the hypercalcemia and survival result was “hypercalcemia and death of the mice”.
With `C[C@H](CCCC(C)(C)O)[C@H]1CC[C@H]2[C@@H]3CC=C4C[C@@H](O)CC[C@]4(C)[C@H]3CC[C@]12C` [25-hydroxycholesterol], the “effect on TSLP expression (Q-PCR)” value with TSLP [1] is listed as “no effect”.
For `CC1(C)CC=C(C#Cc2ccccc2)c2cc(/C=C/c3ccc(C(=O)O)cc3)ccc21` [BMS493, (E)-4-[2-[5,6-Dihydro-5,5-dimethyl-8-(2-phenylethynyl)naphthalene-2-yl]ethen-1-yl]benzoic Acid], in data set [5], the “effect on MC903-induced TSLP expression” value is reported as “down-regulates”.
As for `CC1(C)CCC(C)(C)c2cc(C3(c4ccc(C(=O)O)cc4)OCCO3)ccc21` [BMS649], the “effect on TSLP expression (Q-PCR)” value with TSLP [1] is “no effect”.
As for `CC1(C)CCC(C)(C)c2cc(C(O)C(=O)Nc3ccc(C(=O)O)cc3F)ccc21` (centres unmarked) [BMS961, R- and S-3-fluoro-4-[2-hydroxy-2-(5,5,8,8-tetramethyl-5,6,7,8,-tetrahydro-naphthalen-2-yl)-acetulamino]-benzoic acid], the “increase in TSLP transcripts at D5” value with TSLP [1] came out at 5 fold. For the same compound, the “TSLP transcripts upon application on mouse ear skin” value with TSLP [1] (topical application on mouse ear skin) is on record as “significant increase”. In addition, the “AD-like phenotype upon topical treatment on its own” value in data set [6] was “too low to trigger an overt AD-like phenotype”.
For the compound `C=C1/C(=C\C=C2/CCC[C@]3(C)[C@@H]([C@H](C)/C=C/C=C/C(O)(CC)CC)CC[C@@H]23)C[C@@H](O)C[C@@H]1O` [EB1089, 1(S),3(R)-dihydroxy-20(R)-(5′-ethyl-5′-hydroxy-hepta-1′(E),3′(E)-dien-1′-yl)-9,10-secopregna-5(Z),7(E),10(19)-triene], the “dose dependence of TSLP transcripts” value in the data set on TSLP [3] is reported as “similarly observed”.
As for `CC(C)OC(=O)C(C)(C)Oc1ccc(C(=O)c2ccc(Cl)cc2)cc1` [Fenofibrate], in the data set with TSLP [1], the “effect on TSLP expression (Q-PCR)” value was “no effect”.
Still for that read-out and setting: the entry for `Cc1cc(SCc2sc(-c3ccc(C(F)(F)F)cc3)nc2C)ccc1OCC(=O)O` [GW501516] is “no effect”.
For the compound `C=C1/C(=C\C=C2/CCC[C@]3(C)[C@@H]([C@@H](C)OCCCC(O)(CC)CC)CC[C@@H]23)C[C@@H](O)C[C@@H]1O` [KH1060, 1α,25-(OH),-20-epi-22-oxa-24,26,27-trishomovitamin D], in the data set on TSLP [3], the “dose dependence of TSLP transcripts” value is listed as “similarly observed”.
On to `CN(CCOc1ccc(CC2SC(=O)NC2=O)cc1)c1ccccn1` (centres unmarked) [Rosiglitazone], for which the “effect on TSLP expression (Q-PCR)” value in the data set with TSLP [1] was “no effect”.
